These results are taken from patent US20090239926A1, “METHODS FOR THE TREATMENT OF PSORIASIS OR PSORIATIC ARTHRITIS USING CYCLOPROPYL-N-CARBOXAMIDE” (priority 2008, published 2009).

The test has as its system mAB/LPS-induced experimental arthritis in male BALB/c mice. Nature of the test: mAb/LPS-induced mice arthritis model. It is filed as in vivo. Conditions: Enbrel 5 mg/kg/day IP. How it is done: Treatment Regimen: Compound A was administered by oral gavage (PO), using a suitable stainless steel feeding needle. Enbrel (Reference Item) was administrated by intraperitoneal (IP) injections. Compound A was first administered on study Day 3 (one hour prior to the single LPS injection) and thereafter on Days 4, 5, 6, 7, 8, 9, 10, 11, 12 and 13 (total of 11 successive treatment days) at 1, 5 and 25 mg/kg once daily. Compound A treated groups comprised n=8 BALB/c male mice per dosing group. In addition, two equally sized groups were treated with either Enbrel (5 mg/kg/day, Reference Item), or a solution of 0.5% Na CMC/0.25% Tween 80 (PO, 5 ml/kg, Vehicle Control).
Arthritis Reactions: Both hind paws (left and right) of each animal were examined for signs of arthritogenic responses prior to arthritis induction (Day 0) and thereafter on study days 4, 5, 6, 7, 9, 11 & 14 as selected by the Sponsor. Arthritis reactions were scored and recorded according to a 0-4 scale in ascending order of severity (based on Morwell MD Biosciences Inc. brochure) as shown in Table 1.
Measurements of Experimental Arthritis: Hind paw thickness was determined on eight days using a Mitutoyo Electronic Digital Caliper (on Days 0, 4, 5, 6, 7, 9, 11 and 14) and presented as mean group values of the average for both left and right hind paws.

[1] abbreviates: Day 0 (prior to arthritis induction).

Enbrel: the “Arthritis Scoring, mean of both hind paws (0-4 scale)” value reads like this: under setting [1], 0; (Day 4) 0; (Day 5) 1; (Day 6) 1; (Day 7) 1**↓; (Day 9) 1***↓. The “Arthritis Scoring, mean of both hind paws (0-4 scale)” value runs as follows: (Day 11) 0***↓; (Day 14) 0**↓. Besides, the “Hind Paws Thickness, group mean” value runs as follows: under setting [1], 2.2 mm; (Day 4) 2.2 mm; (Day 5) 2.3 mm; (Day 6) 2.5*↓ mm; (Day 7) 2.5**↓ mm; (Day 9) 2.3**↓ mm. Further, the “Hind Paws Thickness, group mean” value is reported as 2.3**↓ mm (Day 11) and 2.3**↓ mm (Day 14). In addition, the “Percentage Change in Hind Paw Thickness vs. Study Commencement (Day 0), group mean” value runs as follows: (Day 4) 0%; (Day 5) 6%; (Day 6) 13%; (Day 7) 12**↓ %; (Day 9) 7**↓ %; (Day 11) 4**↓ %. Further, the “Percentage Change in Hind Paw Thickness vs. Study Commencement (Day 0), group mean” value (Day 14) is listed as 4**↓ %.
